pIC50: −log10 of the molar value. Like-named read-outs stand apart in the source and are kept apart here. Values belong to the compound of their own block, whether it stands above or below them.
Columns and labels:
[1] = target: receptors (Bioprint panel) (Homo sapiens, UniProt P28335); experiment: biochemical; format: binding; settings: read-out: Reference Compound IC50
[2] = target: receptors (Bioprint panel) (Homo sapiens, UniProt P41595); experiment: biochemical; format: binding; settings: read-out: Reference Compound IC50
enzymes (Bioprint panel) [3] = target: T1, enzymes (Bioprint panel) (Homo sapiens, UniProt O00408); experiment: biochemical; settings: PDE2A1 (h); read-out: Reference Compound IC50
T1 construct: other: PDE2A1 (h); 10 μM; PDE2A1 (h)
T1 sequence (O00408 other isoform, or with tags, fused parts or gaps): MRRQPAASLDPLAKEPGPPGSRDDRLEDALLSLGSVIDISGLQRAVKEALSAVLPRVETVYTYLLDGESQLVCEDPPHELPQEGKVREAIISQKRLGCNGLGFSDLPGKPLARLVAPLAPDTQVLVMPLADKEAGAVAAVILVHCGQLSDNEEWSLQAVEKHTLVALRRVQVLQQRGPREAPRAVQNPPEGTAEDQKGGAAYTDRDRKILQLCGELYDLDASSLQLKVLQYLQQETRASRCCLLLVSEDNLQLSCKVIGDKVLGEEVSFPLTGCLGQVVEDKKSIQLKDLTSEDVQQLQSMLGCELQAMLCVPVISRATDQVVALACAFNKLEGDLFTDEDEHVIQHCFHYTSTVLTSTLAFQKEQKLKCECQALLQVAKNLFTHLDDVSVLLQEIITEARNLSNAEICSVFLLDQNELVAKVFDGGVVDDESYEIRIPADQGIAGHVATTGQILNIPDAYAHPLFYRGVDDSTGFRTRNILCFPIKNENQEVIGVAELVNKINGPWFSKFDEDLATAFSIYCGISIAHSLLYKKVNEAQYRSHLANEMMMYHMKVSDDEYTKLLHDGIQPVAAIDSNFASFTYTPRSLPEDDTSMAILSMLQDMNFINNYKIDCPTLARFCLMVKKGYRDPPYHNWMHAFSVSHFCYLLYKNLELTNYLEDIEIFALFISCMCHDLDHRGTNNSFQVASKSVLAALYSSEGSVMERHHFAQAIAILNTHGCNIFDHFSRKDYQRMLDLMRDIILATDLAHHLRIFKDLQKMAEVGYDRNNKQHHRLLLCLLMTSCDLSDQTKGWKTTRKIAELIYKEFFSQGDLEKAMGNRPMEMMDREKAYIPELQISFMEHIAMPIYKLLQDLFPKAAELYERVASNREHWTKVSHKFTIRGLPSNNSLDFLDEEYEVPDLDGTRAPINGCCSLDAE

Sirtuin 6 (h) [4] = target: T2, Sirtuin 6 (h) (Homo sapiens, UniProt Q8N6T7); experiment: Epigenetic enzyme assay, Sirtuins; format: biochemical; settings: Table 10; read-out: Reference IC50
T2 sequence (Q8N6T7 whole entry): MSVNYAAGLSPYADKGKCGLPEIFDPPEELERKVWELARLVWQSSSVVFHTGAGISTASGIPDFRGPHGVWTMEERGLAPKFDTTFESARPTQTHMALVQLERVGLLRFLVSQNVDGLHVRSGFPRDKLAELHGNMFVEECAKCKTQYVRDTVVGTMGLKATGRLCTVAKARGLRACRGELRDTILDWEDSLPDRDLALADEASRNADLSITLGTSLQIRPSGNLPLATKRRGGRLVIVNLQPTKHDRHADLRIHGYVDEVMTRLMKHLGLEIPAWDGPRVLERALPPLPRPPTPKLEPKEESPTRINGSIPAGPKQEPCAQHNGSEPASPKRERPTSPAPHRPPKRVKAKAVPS

Sirtuin 6 (h) [5] = target: T2, Sirtuin 6 (h); settings: reference compound; Fluorogenic HDAC 50 μM; 180 min/RT; cited from earlier work
FBXL10 (h) [6] = target: T3, FBXL10 (h) (Homo sapiens, UniProt Q8NHM5); experiment: Epigenetic enzyme assay, Demethylases (KDMs); format: biochemical; settings: read-out: Reference IC50
T3 sequence (Q8NHM5 1-1336): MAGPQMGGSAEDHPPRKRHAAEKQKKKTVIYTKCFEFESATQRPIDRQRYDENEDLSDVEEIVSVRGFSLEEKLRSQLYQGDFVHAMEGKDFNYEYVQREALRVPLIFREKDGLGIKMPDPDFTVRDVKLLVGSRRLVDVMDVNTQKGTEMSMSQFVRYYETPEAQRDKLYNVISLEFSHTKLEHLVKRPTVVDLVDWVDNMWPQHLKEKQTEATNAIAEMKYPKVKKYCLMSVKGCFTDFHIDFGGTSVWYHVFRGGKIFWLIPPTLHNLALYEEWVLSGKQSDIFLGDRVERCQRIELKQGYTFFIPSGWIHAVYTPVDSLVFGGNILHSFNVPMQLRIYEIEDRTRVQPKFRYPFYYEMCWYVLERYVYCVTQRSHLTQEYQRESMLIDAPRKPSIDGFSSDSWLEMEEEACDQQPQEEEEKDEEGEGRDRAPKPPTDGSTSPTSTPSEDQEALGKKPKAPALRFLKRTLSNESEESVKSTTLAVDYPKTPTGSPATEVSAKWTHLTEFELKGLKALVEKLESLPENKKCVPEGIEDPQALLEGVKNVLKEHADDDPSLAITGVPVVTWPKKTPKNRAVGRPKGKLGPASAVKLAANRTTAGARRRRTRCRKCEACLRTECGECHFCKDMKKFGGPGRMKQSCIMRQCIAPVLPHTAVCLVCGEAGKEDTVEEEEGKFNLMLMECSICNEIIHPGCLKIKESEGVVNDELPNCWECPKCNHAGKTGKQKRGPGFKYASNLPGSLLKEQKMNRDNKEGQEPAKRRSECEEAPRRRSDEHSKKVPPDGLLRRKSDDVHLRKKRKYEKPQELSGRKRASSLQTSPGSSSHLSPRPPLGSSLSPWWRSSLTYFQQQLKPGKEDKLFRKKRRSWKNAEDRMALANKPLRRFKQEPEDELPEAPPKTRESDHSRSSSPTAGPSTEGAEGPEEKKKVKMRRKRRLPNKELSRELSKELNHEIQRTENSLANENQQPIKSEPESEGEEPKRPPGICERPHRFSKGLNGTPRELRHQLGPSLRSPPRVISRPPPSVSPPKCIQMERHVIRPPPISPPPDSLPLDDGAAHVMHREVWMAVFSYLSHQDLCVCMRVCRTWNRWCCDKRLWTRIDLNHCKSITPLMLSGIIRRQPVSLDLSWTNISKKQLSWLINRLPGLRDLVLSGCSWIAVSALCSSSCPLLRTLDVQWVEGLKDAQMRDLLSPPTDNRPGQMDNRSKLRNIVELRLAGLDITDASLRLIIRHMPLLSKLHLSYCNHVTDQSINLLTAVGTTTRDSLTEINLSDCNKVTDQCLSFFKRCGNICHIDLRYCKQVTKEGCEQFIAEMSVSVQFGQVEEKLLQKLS

JARID1A (h) [7] = target: T4, JARID1A (h) (Homo sapiens, UniProt P29375); experiment: Epigenetic enzyme assay, Demethylases (KDMs); format: biochemical
T4 sequence (P29375 whole entry): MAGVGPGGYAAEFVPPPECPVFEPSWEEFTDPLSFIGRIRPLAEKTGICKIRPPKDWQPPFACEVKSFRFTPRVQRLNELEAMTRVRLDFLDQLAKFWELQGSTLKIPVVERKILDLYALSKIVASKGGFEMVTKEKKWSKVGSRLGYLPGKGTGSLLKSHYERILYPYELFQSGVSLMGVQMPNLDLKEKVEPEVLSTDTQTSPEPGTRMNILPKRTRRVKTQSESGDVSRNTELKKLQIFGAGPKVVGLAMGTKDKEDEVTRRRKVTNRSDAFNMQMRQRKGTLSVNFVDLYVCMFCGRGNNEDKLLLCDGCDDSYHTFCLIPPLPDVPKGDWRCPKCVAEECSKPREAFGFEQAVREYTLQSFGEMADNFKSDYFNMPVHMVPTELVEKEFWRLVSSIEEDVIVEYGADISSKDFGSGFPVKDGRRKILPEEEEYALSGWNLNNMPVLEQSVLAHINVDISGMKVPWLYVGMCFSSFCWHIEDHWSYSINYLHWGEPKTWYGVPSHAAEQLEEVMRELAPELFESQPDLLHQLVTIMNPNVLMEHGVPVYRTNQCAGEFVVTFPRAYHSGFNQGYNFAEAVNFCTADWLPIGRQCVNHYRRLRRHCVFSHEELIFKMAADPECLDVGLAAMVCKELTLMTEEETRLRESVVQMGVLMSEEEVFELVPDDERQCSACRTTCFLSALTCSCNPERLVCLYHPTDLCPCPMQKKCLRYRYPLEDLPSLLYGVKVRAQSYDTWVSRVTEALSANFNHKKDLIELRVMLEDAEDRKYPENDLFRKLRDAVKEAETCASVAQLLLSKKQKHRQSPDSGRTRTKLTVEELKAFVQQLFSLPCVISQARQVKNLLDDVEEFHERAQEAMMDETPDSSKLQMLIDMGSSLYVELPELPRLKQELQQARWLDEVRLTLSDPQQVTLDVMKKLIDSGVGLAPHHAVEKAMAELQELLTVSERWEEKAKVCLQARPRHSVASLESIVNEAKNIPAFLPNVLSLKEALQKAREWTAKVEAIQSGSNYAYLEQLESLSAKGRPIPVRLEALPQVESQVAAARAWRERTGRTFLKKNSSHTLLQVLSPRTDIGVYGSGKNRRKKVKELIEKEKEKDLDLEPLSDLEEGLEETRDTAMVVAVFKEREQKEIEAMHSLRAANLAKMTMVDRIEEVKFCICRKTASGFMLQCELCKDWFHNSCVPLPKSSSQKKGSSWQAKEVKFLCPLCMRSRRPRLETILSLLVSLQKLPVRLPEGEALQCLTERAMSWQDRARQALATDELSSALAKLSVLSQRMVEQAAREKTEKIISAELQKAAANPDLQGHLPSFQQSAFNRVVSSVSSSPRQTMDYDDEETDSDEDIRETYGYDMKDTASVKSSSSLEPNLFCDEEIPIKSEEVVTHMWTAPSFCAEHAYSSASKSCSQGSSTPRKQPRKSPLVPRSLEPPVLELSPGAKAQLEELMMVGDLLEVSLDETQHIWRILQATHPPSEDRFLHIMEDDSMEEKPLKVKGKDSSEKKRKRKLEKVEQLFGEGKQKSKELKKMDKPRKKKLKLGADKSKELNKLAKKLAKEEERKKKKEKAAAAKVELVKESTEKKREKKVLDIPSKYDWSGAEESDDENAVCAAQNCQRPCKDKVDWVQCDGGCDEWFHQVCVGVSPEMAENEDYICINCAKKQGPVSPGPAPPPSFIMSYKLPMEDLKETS

JMJD2B (h) [8] = target: T5, JMJD2B (h) (Homo sapiens, UniProt O94953); experiment: Epigenetic enzyme assay, Demethylases (KDMs); format: biochemical
T5 sequence (O94953 1-1096): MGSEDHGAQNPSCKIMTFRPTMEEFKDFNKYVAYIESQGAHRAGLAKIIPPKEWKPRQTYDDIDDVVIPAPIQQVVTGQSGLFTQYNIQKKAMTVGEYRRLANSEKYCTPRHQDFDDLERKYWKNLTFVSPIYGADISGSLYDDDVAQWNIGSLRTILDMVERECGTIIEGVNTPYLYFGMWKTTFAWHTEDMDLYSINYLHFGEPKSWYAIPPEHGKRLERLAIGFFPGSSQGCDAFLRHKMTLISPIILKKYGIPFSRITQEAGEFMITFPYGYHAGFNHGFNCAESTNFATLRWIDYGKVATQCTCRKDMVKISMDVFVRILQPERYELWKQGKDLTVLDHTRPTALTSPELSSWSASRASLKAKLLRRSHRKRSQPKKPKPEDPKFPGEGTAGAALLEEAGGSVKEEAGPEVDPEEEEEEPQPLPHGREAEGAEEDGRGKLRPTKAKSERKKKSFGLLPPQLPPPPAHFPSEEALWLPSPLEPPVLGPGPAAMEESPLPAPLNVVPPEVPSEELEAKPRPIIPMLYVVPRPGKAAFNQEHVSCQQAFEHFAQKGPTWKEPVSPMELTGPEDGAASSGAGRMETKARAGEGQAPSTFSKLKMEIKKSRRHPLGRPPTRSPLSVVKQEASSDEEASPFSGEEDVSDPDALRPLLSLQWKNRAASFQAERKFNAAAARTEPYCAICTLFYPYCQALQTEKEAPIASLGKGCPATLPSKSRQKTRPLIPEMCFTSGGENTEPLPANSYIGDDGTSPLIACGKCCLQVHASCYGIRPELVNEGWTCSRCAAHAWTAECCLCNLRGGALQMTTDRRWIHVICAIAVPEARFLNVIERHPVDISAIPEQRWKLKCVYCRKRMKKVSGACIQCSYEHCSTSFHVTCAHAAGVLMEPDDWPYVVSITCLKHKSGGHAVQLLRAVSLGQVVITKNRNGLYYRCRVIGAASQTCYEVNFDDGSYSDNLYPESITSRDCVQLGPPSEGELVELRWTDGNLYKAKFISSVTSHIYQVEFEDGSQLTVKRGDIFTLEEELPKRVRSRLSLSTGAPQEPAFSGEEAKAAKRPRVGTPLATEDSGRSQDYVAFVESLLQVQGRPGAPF

FBXL10 (h) [9] = target: T3, FBXL10 (h); settings: read-out: Reference IC50; cited from earlier work
JARID1A (h) [10] = target: T4, JARID1A (h); settings: read-out: Reference IC50; cited from earlier work
JMJD2B (h) [11] = target: T5, JMJD2B (h); settings: read-out: Reference IC50; cited from earlier work
enzymes (Bioprint panel) [12] = target: enzymes (Bioprint panel) (Mus musculus, UniProt P29477); experiment: biochemical; settings: inducible NOS; read-out: Reference Compound IC50
Chain of enzymes (Bioprint panel) (Mus musculus, UniProt P29477) (P29477 whole entry): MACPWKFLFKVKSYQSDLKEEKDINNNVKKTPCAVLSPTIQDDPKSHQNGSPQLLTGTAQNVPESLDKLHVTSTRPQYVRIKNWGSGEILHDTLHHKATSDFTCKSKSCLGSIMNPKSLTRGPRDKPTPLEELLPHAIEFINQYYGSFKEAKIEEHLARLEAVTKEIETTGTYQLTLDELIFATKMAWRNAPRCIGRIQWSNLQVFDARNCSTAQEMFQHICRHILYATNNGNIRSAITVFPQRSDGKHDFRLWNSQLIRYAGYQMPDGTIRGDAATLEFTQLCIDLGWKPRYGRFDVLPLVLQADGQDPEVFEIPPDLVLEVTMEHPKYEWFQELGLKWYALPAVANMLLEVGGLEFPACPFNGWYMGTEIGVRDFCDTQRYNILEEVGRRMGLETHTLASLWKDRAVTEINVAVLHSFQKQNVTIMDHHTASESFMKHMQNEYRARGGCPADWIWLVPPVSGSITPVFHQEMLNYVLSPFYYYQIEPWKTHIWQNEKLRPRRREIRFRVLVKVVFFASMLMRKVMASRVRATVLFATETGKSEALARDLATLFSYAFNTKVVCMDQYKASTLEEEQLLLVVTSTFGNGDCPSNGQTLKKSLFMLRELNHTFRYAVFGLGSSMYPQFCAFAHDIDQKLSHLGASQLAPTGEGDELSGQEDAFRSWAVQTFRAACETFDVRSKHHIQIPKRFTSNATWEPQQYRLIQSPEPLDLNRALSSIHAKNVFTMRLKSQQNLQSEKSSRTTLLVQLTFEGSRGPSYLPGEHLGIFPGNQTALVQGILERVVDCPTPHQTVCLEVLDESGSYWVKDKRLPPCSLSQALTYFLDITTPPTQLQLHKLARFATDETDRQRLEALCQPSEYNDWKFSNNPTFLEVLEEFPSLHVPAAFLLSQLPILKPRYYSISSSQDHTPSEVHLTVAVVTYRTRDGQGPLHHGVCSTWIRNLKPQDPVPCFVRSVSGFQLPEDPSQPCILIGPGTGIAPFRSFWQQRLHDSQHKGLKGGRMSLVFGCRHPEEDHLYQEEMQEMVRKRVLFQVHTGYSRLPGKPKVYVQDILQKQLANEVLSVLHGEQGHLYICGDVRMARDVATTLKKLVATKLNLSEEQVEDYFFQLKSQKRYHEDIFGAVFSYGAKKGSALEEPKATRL

GCN5L2(h) [13] = target: T6, GCN5L2(h) (Homo sapiens, UniProt Q92830); experiment: Epigenetic enzyme assay, Histone acetyltransferases (HATs); format: biochemical; settings: Table 10; read-out: Reference IC50
T6 sequence (Q92830 whole entry): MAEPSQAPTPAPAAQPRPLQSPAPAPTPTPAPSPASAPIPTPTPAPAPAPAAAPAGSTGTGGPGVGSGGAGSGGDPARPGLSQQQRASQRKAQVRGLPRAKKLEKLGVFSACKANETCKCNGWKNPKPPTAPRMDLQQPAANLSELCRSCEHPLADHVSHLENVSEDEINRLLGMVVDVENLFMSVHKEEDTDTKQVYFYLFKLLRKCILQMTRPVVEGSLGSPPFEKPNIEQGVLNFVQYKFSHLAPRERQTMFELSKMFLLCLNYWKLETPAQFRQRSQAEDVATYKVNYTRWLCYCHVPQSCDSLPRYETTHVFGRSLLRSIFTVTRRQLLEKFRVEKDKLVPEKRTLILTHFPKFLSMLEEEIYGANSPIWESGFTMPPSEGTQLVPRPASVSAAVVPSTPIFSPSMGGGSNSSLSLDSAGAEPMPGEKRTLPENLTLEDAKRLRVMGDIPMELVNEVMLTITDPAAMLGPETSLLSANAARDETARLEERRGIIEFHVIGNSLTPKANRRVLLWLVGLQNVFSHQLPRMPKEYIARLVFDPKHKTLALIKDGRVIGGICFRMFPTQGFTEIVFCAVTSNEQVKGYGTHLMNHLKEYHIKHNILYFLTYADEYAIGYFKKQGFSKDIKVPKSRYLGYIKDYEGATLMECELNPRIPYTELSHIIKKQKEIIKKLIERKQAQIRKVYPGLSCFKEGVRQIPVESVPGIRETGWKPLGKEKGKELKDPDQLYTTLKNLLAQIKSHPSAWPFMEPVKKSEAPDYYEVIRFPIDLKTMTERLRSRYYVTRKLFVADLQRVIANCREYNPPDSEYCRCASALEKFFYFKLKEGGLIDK

GCN5L2(h) [14] = target: T6, GCN5L2(h); settings: reference compound; biotin-H3K27me3 50 nM; 10 min/RT; LANCE; cited from earlier work
BRD3(2) (h) bromodomain [15] = target: T7, BRD3(2) (h) bromodomain (Homo sapiens, UniProt Q15059); experiment: Epigenetic binding assay, Bromodomain; settings: Table 4; read-out: Reference IC50
T7 construct: Bromodomain
T7 sequence (Q15059 306-415 limits assumed): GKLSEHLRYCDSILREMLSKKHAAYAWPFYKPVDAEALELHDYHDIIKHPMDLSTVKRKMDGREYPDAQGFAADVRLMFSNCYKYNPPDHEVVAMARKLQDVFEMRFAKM

BRD3(2) (h) bromodomain [16] = target: T7, BRD3(2) (h) bromodomain; settings: ligand biotin-H4 di acetyl Lys 5/8 100 nM; 30 min/RT; AlphaScreen; read-out: Reference IC50; cited from earlier work
enzymes (Bioprint panel) [17] = experiment: biochemical; settings: COMT (catechol- O-methyl transferase); read-out: Reference Compound IC50
[18] = target: receptors (Bioprint panel) (Homo sapiens, UniProt P35348); experiment: biochemical; format: binding; settings: read-out: Reference Compound IC50
[19] = target: CYP2B6 (Bupropion Substrate) (Homo sapiens, UniProt P20813); experiment: Cytochrome P450 Inhibition (CYP panel)
[20] = target: receptors (Bioprint panel) (Homo sapiens, UniProt Q9GZV3); experiment: biochemical; format: binding; settings: choline transporter (CHT1) (h) (antagonist radioligand); read-out: Reference Compound IC50
[21] = target: receptors (Bioprint panel) (Homo sapiens, UniProt Q9H3N8); experiment: biochemical; format: binding; settings: read-out: Reference Compound IC50
enzymes (Bioprint panel) [22] = target: T8, enzymes (Bioprint panel) (UniProt A0ABM2YAB8); experiment: biochemical; settings: read-out: Reference Compound IC50
T8 construct: other: MT3 (ML2) (agonist radioligand); 10 μM

[23] = target: receptors (Bioprint panel) (Homo sapiens, UniProt P14867); experiment: biochemical; format: binding
enzymes (Bioprint panel) [24] = target: T9, enzymes (Bioprint panel); experiment: biochemical; settings: read-out: Reference Compound IC50
T9 construct: other: ATPase (Na+/K+); 10 μM

[25] = target: receptors (Bioprint panel) (Homo sapiens, UniProt P41597); experiment: biochemical; format: binding; settings: CHEMOKINES CCR2 (h) (agonist radioligand); read-out: Reference Compound IC50

Compound: COc1cc(CC(C)N)c(OC)cc1I (racemic) [(±)DOI]
pIC50 [1]: 9.62
pIC50 [2]: 8.17

Compound: CCCCCC[C@@H]([C@@H](C)O)n1cnc2c(N)ncnc21 (racemic) [EHNA]
pIC50 (enzymes (Bioprint panel) [3]): 5.92

Compound: NC(=O)C1CCCc2c1[nH]c1ccc(Cl)cc21 (racemic) [EX-527, reference compound]
pIC50 (Sirtuin 6 (h) [4]): 3.26
pIC50 (Sirtuin 6 (h) [5]): 3.26

Compound: O=C(O)c1ccnc(C(=O)O)c1 [2,4 PDCA, reference compound]
pIC50 (FBXL10 (h) [6]): 6.21
pIC50 (JARID1A (h) [7]; read-out: IC50): 7.00
pIC50 (JARID1A (h) [7]; read-out: Reference IC50): 6.74
pIC50 (JMJD2B (h) [8]; read-out: IC50): 7.02
pIC50 (JMJD2B (h) [8]; read-out: Reference IC50): 6.85
pIC50 (FBXL10 (h) [9]): 6.21
pIC50 (JARID1A (h) [10]): 6.74
pIC50 (JMJD2B (h) [11]): 6.85

Compound: CC(=N)NCc1cccc(CN)c1 [1400 W]
pIC50 (enzymes (Bioprint panel) [12]): 7.54

Compound: CCCCCCCCCCCCCCCc1cccc(O)c1C(=O)O [Anacardic Acid, reference compound]
pIC50 (GCN5L2(h) [13]): 5.33
pIC50 (GCN5L2(h) [14]): 5.33

Compound: COc1ccccc1S(=O)(=O)Nc1ccc2c(c1)CN(C)C(=O)N2 [PFI-1, reference compound]
pIC50 (BRD3(2) (h) bromodomain [15]): 6.10
pIC50 (BRD3(2) (h) bromodomain [16]): 6.10

Compound: O=C(c1cc(O)c(O)c([N+](=O)[O-])c1)c1ccccc1F [Ro 41-0960]
pIC50 (enzymes (Bioprint panel) [17]): 7.21

Compound: COc1cccc(OC)c1OCCNCC1COc2ccccc2O1 (stereo not drawn) [WB 4101]
pIC50 [18]: 9.57

pIC50 [19]: 6.41
Compound: COC(=O)[C@H](c1ccccc1Cl)N1CCc2sccc2C1 [clopidogrel, reference compound]

Compound: C[N+]1(C)CCOC(O)(c2ccc(-c3ccc(C4(O)C[N+](C)(C)CCO4)cc3)cc2)C1 (stereo not drawn) [hemicholinium-3]
pIC50 [20]: 8.34

Compound: N=C(N)SCCc1cnc[nH]1 [imetit]
pIC50 [21]: 8.33

Compound: COc1ccc2[nH]cc(CCNC(C)=O)c2c1 [melatonin]
pIC50 (enzymes (Bioprint panel) [22]): 6.80

Compound: NCc1cc(=O)[nH]o1 [muscimol]
pIC50 [23]: 7.28

Compound: C[C@@H]1O[C@@H](O[C@H]2C[C@@H](O)[C@]3(CO)[C@H]4[C@H](O)C[C@]5(C)[C@@H](C6=CC(=O)OC6)CC[C@]5(O)[C@@H]4CC[C@]3(O)C2)[C@H](O)[C@H](O)[C@H]1O [ouabain]
pIC50 (enzymes (Bioprint panel) [24]): 6.60

Compound: MCP-1
pIC50 [25]: 10.06

— patent US11331299B2, “Medicinal use of serrulatane diterpenes” (The University of Sydney, priority 2016, dated 2022)
